How the values were obtained:
[1] = tested on: acetic acid (AA) irritated bladders of rats; assay: Acute bladder irritation by acetic acid in rats (continuous infusion cystometrogram); format: in vivo, rat (female Sprague Dawley); details: anesthetized rats; 3, 10 and 30 mg/kg, intravenous cumulative doses; intravesical infusion of 0.15% acetic acid; FIG. 1
Description: (§1) The effect of a representative compound of formula I, (S)-(+)-2-[4-(2-fluorobenzyloxy)-benzylamino]-propanamide (NW-1029), on voiding function was tested in the following rat models of “Acute bladder irritation by acetic acid” and “Intermediate bladder irritation by cyclophosphamide (CYP)”.
(§2) Continuous infusion cystometrograms (0.04 ml/min) were used to measure intercontraction intervals (ICIs) which provide an estimate of bladder capacity. Cumulative dose response curves were obtained in each animal by administering intravenously increasing doses of the drug.
Experiments were performed using adult anesthetized female Sprague Dawley rats (170-200 g).
A catheter (PE-50) was inserted via a midline abdominal incision into the bladder through the bladder dome, and then intravesical pressure was measured to monitor bladder activity during continuous infusion of 0.15% of acetic acid. Intercontraction intervals (ICIs), maximal contraction pressure, and pressure thresholds inducing reflex bladder contraction were measured before and after intravesical infusion of acetic acid in NW-1029 treated rats.

[2] = tested on: cyclophosphamide (CYP) irritated bladders of rats; assay: Intermediate bladder irritation by cyclophosphamide (CYP) in rats (continuous infusion cystometrogram); format: in vivo, rat (female Sprague Dawley); details: 0.1 to 10 mg/kg/iv, CYP 150 mg/kg/ip one day before
Description: as §1, §2
Experiments were performed using both adult awake and anesthetized female Sprague Dawley rats (170-200 g).
Chemical cystitis was induced by CYP, which is metabolized to acrolein, an irritant eliminated in the urine. CYP (150 mg/kg/ip) was administered one day before the experiment.
NW-1029 was administered in a dose range from 0.1 to 10 mg/kg/iv.

SMILES: C[C@H](NCc1ccc(OCc2ccccc2F)cc1)C(N)=O [NW-1029, (S)-(+)-2-[4-(2-fluorobenzyloxy)-benzylamino]-propanamide]
- intercontraction interval (ICI), reversal of AA-induced reduction [1]: significant reversal of the AA-induced reduction in the ICI
- intercontraction interval (ICI) ([2]; anesthetized rats, FIG. 3): significantly increases the ICI
- intercontraction interval (ICI) ([2]; awake rats, FIG. 2): significantly increases the ICI

From patent US7718815B2, “Alpha-aminoamide derivatives useful in the treatment of lower urinary tract disorders” (Newron Pharmaceuticals S.p.A., priority 2004, dated 2010)
